This note sets out measurements from PubChem BioAssay AID1159565 (GlaxoSmithKline (GSK), 2015).

The subject of this assay is T. cruzi-infected H9C2 cardiomyocytes, high-content imaging. Briefly: anti-T. cruzi activity in infected cardiomyocytes – imaging, H9C2 host cardiomyocytes, host toxicity (AID 1159565).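 Note: infected cells incubated 72 h after plating.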
Where [1] appears, read: measured here: H9C2 host cell toxicity.
[2] abbreviates: measured here: amastigotes per cell.

Activity calls are given as the source filed them. The rule behind the calls is not given here.

Regarding `CCc1cccc(-n2nc(OCC(=O)NC3CCCC3)c3cccnc32)c1`, the IC50 was > 50000 nM (inactive). This molecule came in with an IC50 under setting [1] of more than 50000 nM. The same molecule showed an IC50 under setting [2] of more than 50000 nM.
On to `O=C(NCCc1ccccn1)C(c1cn[nH]c1)N1CCN(c2ccc(Cl)c(Cl)c2)CC1` (stereo not given), for which the IC50 was 160 nM. Moreover, under setting [1], the IC50 is more than 50000 nM. Besides, the IC50 under setting [2] amounted to 130 nM.
The like results for `Cc1cc(N2CCc3ccccc3C2)nc(Nc2ccc(S(=O)(=O)N3CCOCC3)cc2)n1` were, in that order, > 50000 nM (inactive), more than 50000 nM and 25000 nM.
Regarding `CNC(=O)C1Cc2ccccc2N1C(=O)COc1cccc(OC)c1` (stereo not given), the IC50 is > 50000 nM (inactive). Under setting [1], this molecule returned an IC50 of more than 50000 nM. The molecule further registered an IC50 under setting [2] of more than 50000 nM.
Consider `O=C(Nc1cccc(S(=O)(=O)Nc2ccc(Br)cc2)c1)c1ccc([N+](=O)[O-])s1`, for which the IC50 is 130 nM. The IC50 under setting [1] was determined as 2500 nM. The IC50 under setting [2] was 100 nM.
The corresponding values for `CCOC(=O)c1cn[nH]c1S(=O)(=O)N1CCC1c1ccccc1` (stereo not given) are > 50000 nM (inactive), more than 50000 nM and more than 50000 nM.
The like results for `Cc1ccc(NC(=O)c2ccc(Cl)c(NC(=O)c3ccc([N+](=O)[O-])cc3)c2)cc1` were, in that order, 500 nM, more than 50000 nM and 200 nM.
The like results for `CCNc1cc(-c2ccccn2)nc(Nc2ccccc2)n1` were, in that order, 3200 nM, 250 nM and 3200 nM.
With `O=[N+]([O-])c1cccc(Nc2cncc(-c3ccccc3CO)c2)c1`, the IC50 is 400 nM. The IC50 under setting [1] was more than 50000 nM. Also, the half-maximal inhibitory concentration (IC50) under setting [2] worked out at 250 nM.
The like results for `CCC(CC)C(=O)Nc1ccc(-c2nnc(-c3ccc(OC)cc3)o2)cc1` were, in that order, 13000 nM, more than 50000 nM and 4000 nM.
For the molecule `CC(C)Oc1ccc(C(=O)Nc2ccc(N3CCOCC3)c(Cl)c2)cc1`, the IC50 is 1300 nM. This molecule came in with an IC50 under setting [1] of more than 50000 nM. Further, under setting [2], the IC50 was determined as 1300 nM.
As for `Cc1ncsc1CNc1cnc(-c2ccc3c(c2)OCCO3)c(-c2cnn(C)c2)c1`, the IC50 was 40000 nM. In addition, the IC50 under setting [1] is more than 50000 nM. Also, the IC50 under setting [2] is 20000 nM.
Take `COCCn1cnc2cc(NC(=O)C3CCCCC3)cc(C(=O)N3CCc4sccc4C3)c21`: the IC50 is 32000 nM. Under setting [1], this molecule had an IC50 of more than 50000 nM. In addition, the IC50 under setting [2] worked out at 20000 nM.
The corresponding values for `O=C(NNC(=O)c1ccccn1)c1ccc(-c2ccccc2)cc1` are 1600 nM, 2000 nM and 1300 nM.
On to `COc1ccc(Nc2nc(-c3ccccn3)cs2)c(OC)c1`, for which the IC50 is 7900 nM. Under setting [1], this molecule displayed an IC50 of 2000 nM. Further, the IC50 under setting [2] was 5000 nM.
The like results for `COc1cccc(-c2cc(C(F)(F)F)nc(-n3ccc([N+](=O)[O-])n3)n2)c1` were, in that order, 400 nM, more than 50000 nM and 200 nM.
The corresponding values for `O=C(NC(c1ccc(Cl)cc1)c1cnccn1)C1CCN(C(=O)Nc2cccc(C(F)(F)F)c2)CC1` (stereo not given) are 630 nM, more than 50000 nM and 500 nM.
As for `Cc1cnc(Nc2cc(Cc3ccccc3)nc(NC3CCC(O)CC3)n2)s1` (stereo not given), the IC50 was 130 nM. This molecule came in with an IC50 under setting [1] of 32 nM. The IC50 under setting [2] came to 50 nM.
The like results for `O=C(NCC1CCCCC1)c1cc(=O)c2ccccc2o1` were, in that order, 630 nM, 32000 nM and 500 nM.
Turning to `O=C1NCc2cccc(Nc3nc(NC4CCC(O)CC4)ncc3Br)c21` (stereo not given), the IC50 is 1000 nM. Also, under setting [1], the IC50 was 100 nM. Under setting [2], the half-maximal inhibitory concentration (IC50) came out at 400 nM.
Regarding `COc1ccc(NS(=O)(=O)c2cccc(NC(=O)c3cc(F)cc(F)c3)c2)cc1`, the IC50 is 500 nM. Under setting [1], this molecule showed an IC50 of more than 50000 nM. The IC50 under setting [2] was 500 nM.
Turning to `CC(C)c1cc(Nc2cc(Cc3ccccc3)nc(NC3CCC(O)CC3)n2)n[nH]1` (stereo not given), the IC50 was 79 nM. For the same molecule, the IC50 under setting [1] came to 6.3 nM. Besides, the IC50 under setting [2] came out at 32 nM.
For the molecule `CC(C)c1nn(-c2nc(N)nc(-c3ccccn3)n2)c(N)c1C1CCCCC1`, the IC50 was 1300 nM. This molecule also yielded an IC50 under setting [1] of 3200 nM. This molecule registered an IC50 under setting [2] of 1300 nM.
For `CC(C)S(=O)(=O)c1ccc(-c2cnc(N)c3cc(-c4ccnc(N)n4)ccc23)cc1`, the IC50 is 40000 nM. Besides, under setting [1], the IC50 came out at 500 nM. This molecule also registered an IC50 under setting [2] of 13000 nM.
As to `COCCn1c(-c2ccccc2)cnc1NCc1ccccc1OC`, the IC50 is 16000 nM. The IC50 under setting [1] is more than 50000 nM. Besides, the IC50 under setting [2] is 6300 nM.
The like results for `Cc1cc(Nc2cc(C3CC3)[nH]n2)nc(N2CCCC2)n1` were, in that order, 100 nM, 250 nM and 79 nM.
As to `Cc1ccc(C)c(-n2nnnc2Sc2nc([N+](=O)[O-])nn2C)c1`, the IC50 is 790 nM. Further, the IC50 under setting [1] is more than 50000 nM. The molecule also had an IC50 under setting [2] of 250 nM.
The corresponding values for `Cc1ccc(NC(=O)C(C)n2nc([N+](=O)[O-])c(Br)c2C)cc1Cl` (stereo not given) are 6300 nM, more than 50000 nM and 3200 nM.
For the molecule `O=C(NCc1nnc2n1CCCCC2)c1ccc(-c2ccc(F)cc2)o1`, the IC50 was 1600 nM. Under setting [1], this molecule displayed an IC50 of more than 50000 nM. The molecule also returned an IC50 under setting [2] of 1000 nM.
The like results for `CC(=O)Nc1ccc(-c2noc(CC3CCCN(Cc4cccc(F)c4C)C3)n2)cc1` (stereo not given) were, in that order, 2000 nM, 32000 nM and 1300 nM.
The corresponding values for `NS(=O)(=O)c1ccc(Nc2nccc(-c3cnn4ncccc34)n2)cc1` are 16000 nM, 320 nM and 790 nM.
The like results for `Cc1cccc(Nc2nc(-c3ccccn3)cs2)n1` were, in that order, 1000 nM, 630 nM and 790 nM.
For the molecule `N#Cc1cccc(CN2CCC(N(Cc3cccnc3)C(=O)c3cc(F)c(F)cc3F)CC2)c1`, the IC50 was 400 nM. The IC50 under setting [1] was more than 50000 nM. Also, under setting [2], the IC50 turned out to be 320 nM.
Regarding `COc1ccc(Cl)cc1CC(=O)Nc1n[nH]c(-c2ccccn2)n1`, the IC50 was > 50000 nM (inactive). The IC50 under setting [1] was more than 50000 nM. The molecule also gave an IC50 under setting [2] of 10000 nM.
Turning to `CC(=O)NC1(c2ccccc2)CCN(CC(=O)Nc2ccccc2-c2ccccc2)CC1`, the IC50 is 7900 nM. Moreover, the IC50 under setting [1] was more than 50000 nM. The molecule also gave an IC50 under setting [2] of 1600 nM.
The corresponding values for `CCOc1ccc(Nc2ccc(S(=O)(=O)N3CCN(C)CC3)cc2[N+](=O)[O-])cc1OCC` are > 50000 nM (inactive), more than 50000 nM and 3200 nM.
Take `Cc1sc(C)c(C(F)(F)F)c1CNCCCNc1cc(=O)c2ccccc2[nH]1`: the IC50 is 1000 nM. Further, under setting [1], the IC50 was more than 50000 nM. For the same molecule, the IC50 under setting [2] turned out to be 500 nM.
The like results for `Cc1ccc2c(c1)-c1onc(C(=O)N3CCCCC3c3cccnc3)c1CO2` (stereo not given) were, in that order, 130 nM, more than 50000 nM and 130 nM.
For the molecule `O=C(NCCc1cccnc1)c1csc(-c2ccccc2)n1`, the IC50 is 500 nM. Under setting [1], this molecule showed an IC50 of more than 50000 nM. For the same molecule, under setting [2], the IC50 was 400 nM.
As to `COc1ccc(-c2cnc(NC(=O)c3cc(-c4ccccn4)n[nH]3)n2C)cc1`, the IC50 is 5000 nM. Also, under setting [1], the IC50 was more than 50000 nM. Moreover, the IC50 under setting [2] was determined as 4000 nM.
The like results for `CCC(=O)Nc1ccccc1C(=O)Nc1ccccn1` were, in that order, > 50000 nM (inactive), more than 50000 nM and more than 50000 nM.
The like results for `Cc1ccc(-c2csc(NC(=O)C=Cc3ccc(S(=O)(=O)N4CCOCC4)cc3)n2)o1` were, in that order, 10000 nM, 32000 nM and 10000 nM.
With `Cn1c(CC(=O)NNC(=O)c2ccc3ccccc3n2)nc2ccccc21`, the IC50 is 5000 nM. The molecule also registered an IC50 under setting [1] of more than 50000 nM. Besides, the IC50 under setting [2] stood at 6300 nM.
`CCS(=O)(=O)Nc1ccc(C2=NN(C(=O)c3cccs3)C(c3ccccc3OC)C2)cc1` (stereo not given): the IC50 was > 50000 nM (inactive). This molecule also showed an IC50 under setting [1] of more than 50000 nM. In addition, under setting [2], the IC50 is more than 50000 nM.
With `Cc1cccc(N2CCCN(Cc3c[nH]c4ccccc34)CC2)n1`, the IC50 is 400 nM. Further, the IC50 under setting [1] is 2500 nM. Moreover, under setting [2], the IC50 amounted to 320 nM.
The like results for `Cc1c(C#N)c([N+](=O)[O-])nn1Cc1cccc(Cl)c1Cl` were, in that order, 100 nM, more than 50000 nM and 40 nM.
Take `CCCc1cc(N)nc(-c2cc(CCC)cc(N)n2)c1`: the IC50 is 630 nM. The same molecule gave an IC50 under setting [1] of 200 nM. The molecule also showed an IC50 under setting [2] of 500 nM.
Turning to `Cc1ccccc1NS(=O)(=O)c1ccc2[nH]cc(C(=O)NC3CCCC(C)C3C)c(=O)c2c1` (stereo not given), the IC50 is 6300 nM. Besides, the IC50 under setting [1] was determined as 6300 nM. This molecule gave an IC50 under setting [2] of 3200 nM.
`O=C(c1ccc(OCCCc2cnc[nH]2)cc1)C1CC1`: the IC50 is 1600 nM. The molecule also yielded an IC50 under setting [1] of more than 50000 nM. Also, the half-maximal inhibitory concentration (IC50) under setting [2] is 1300 nM.
For `COc1ccc2nc(N(Cc3cccnc3)C(=O)C3CCC3)sc2c1`, the IC50 was 130 nM. Besides, under setting [1], the IC50 is more than 50000 nM. This molecule also registered an IC50 under setting [2] of 100 nM.
The like results for `CN(C)CCN(C)Cc1ccc(F)cc1NS(=O)(=O)c1ccc(Cl)c(Cl)c1` were, in that order, 2500 nM, 6300 nM and 2000 nM.
The corresponding values for `Cc1nn(C)c(Cl)c1CN(Cc1cccnc1)Cc1ccsc1` are 320 nM, more than 50000 nM and 320 nM.
Turning to `CC(CCc1ccccc1)NC(=O)CN(Cc1ccccn1)Cc1ccccn1` (stereo not given), the IC50 was 10000 nM. Under setting [1], this molecule came in with an IC50 of more than 79000 nM. Moreover, the IC50 under setting [2] was 3200 nM.
On to `Cn1cncc1CN1CCC2(CC1)COC(Cc1ccccc1)C2` (stereo not given), for which the IC50 is 500 nM. Under setting [1], this molecule returned an IC50 of more than 50000 nM. In addition, the IC50 under setting [2] was 320 nM.
The like results for `CC(C)C[C@H](NC(=O)c1csc(-c2cccs2)n1)C(=O)NC1(C#N)CC1` were, in that order, > 50000 nM (inactive), more than 50000 nM and 20000 nM.

In general, IC50 refers to the concentration that inhibits the measured activity by half.
